Measured values taken from US11629171B2, “Beta-hairpin peptidomimetics” (POLYPHOR AG, priority 2017, dated 2023).
≈ marks a conversion by molar mass, not a printed value. Where a SMILES comes first, the peptide text is derived from it. Bridges are numbered along the chain shown (N, C = ends). Roman numbers before positions name the chains, in order. [ ]: non-standard residue; d: D form. Leu(3R-OH) = CC(C)[C@@H](O)[C@H](N)C(=O)O; Pen = CC(C)(S)[C@H](N)C(=O)O; Tle = CC(C)(C)[C@H](N)C(=O)O; NMeV = CN[C@H](C(=O)O)C(C)C; Hiv = CC(C)[C@H](O)C(=O)O; dDab = NCC[C@@H](N)C(=O)O; Nle = CCCC[C@H](N)C(=O)O; Dab = NCC[C@H](N)C(=O)O; Dap = NC[C@H](N)C(=O)O

Key:
Format in all cases: cell-based
[1] = tested on: Acinetobacter baumannii 872842; conditions: 872842
In short: (§1)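 Broth microdilution per CLSI; MH-II (cation-adjusted) + 0.002% P-80 final; ~10^6 CFU/mL inoculum; 2-fold peptide series; 35° C, 18-20 h; MIC = no visible growth, μg/mL.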

[2] = tested on: Acinetobacter baumannii DSM 30008; conditions: DSM 30008
In short: as §1

[3] = tested on: Enterobacter cloacae 848840; conditions: 848840
In short: as §1

Escherichia coli 926415 = conditions: 926415
In short: as §1

[4] = tested on: Escherichia coli ATCC 25922; conditions: ATCC 25922
In short: as §1

[5] = tested on: Klebsiella pneumoniae 968733; conditions: 968733
In short: as §1

[6] = tested on: Klebsiella pneumoniae SSI #3010; conditions: SSI #3010
In short: as §1

[7] = tested on: Pseudomonas aeruginosa ATCC 27853; conditions: ATCC 27853
In short: as §1

[8] = tested on: human red blood cells (hRBC); experiment: Hemolysis; conditions: red cells of human, 1 h, 200
In short: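 Washed fresh human RBC (20% v/v) incubated with peptide at 200 μg/mL for 1 h at 37° C with shaking. Supernatant OD540 measured after dilution, blank corrected; percent hemolysis = OD540 peptide / OD540 of 2% Triton X-100 lysis × 100, PBS with 10% water as 0%.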

Compound | MIC [1] | MIC [2] | MIC [3] | MIC (Escherichia coli 926415) | MIC [4] | MIC [5] | MIC [6] | MIC [7] | Hemolysis at 200 μg/mL [8] | Acinetobacter baumannii DSM 30008 MIC [2] | Escherichia coli ATCC 25922 MIC [4] | Klebsiella pneumoniae SSI #3010 MIC [6] | Pseudomonas aeruginosa ATCC 27853 MIC [7]
CC(C)C[C@@H]1NC(=O)[C@@H](CC(C)C)NC(=O)[C@H](CCN)NC(=O)[C@@H](NC(=O)[C@H](CN)NC(=O)[C@@H](NC(=O)[C@H](CCN)NC(=O)CC[C@@H]2NC(=O)[C@H](CO)NC(=O)[C@H](Cc3ccc(O)cc3)NC(=O)[C@@H](NC(=O)[C@@H](O)C(C)C)CSSC[C@@H](C(=O)N[C@@H](CO)C(N)=O)NC(=O)[C@H](C(C)(C)C)NC(=O)[C@H](CO)NC(=O)[C@H](Cc3c[nH]c4ccccc34)NC(=O)[C@H](CCN)NC(=O)[C@@H](CCN)NC2=O)[C@@H](C)O)CCNC(=O)[C@H]([C@@H](C)O)NC(=O)[C@H](CCN)NC(=O)[C@H](CCN)NC1=O [Ex. 271] (I: H-[Hiv]CYSE[dDab][Dab]WS[Tle]CS-NH2 / II: [Dab]T[Dap][Dab][Dab][dL]L[Dab][Dab]T; disulfide I:2-I:11; amide I:5-II:N; lactam II:4-II:C) | 0.0625 mg/L (≈ 0.0264 µM) | 0.03125 mg/L (≈ 0.0132 µM) | 0.25 mg/L (≈ 0.105 µM) | 0.0625 mg/L (≈ 0.0264 µM) | 0.03125 mg/L (≈ 0.0132 µM) | 0.0625 mg/L (≈ 0.0264 µM) | 0.0625 mg/L (≈ 0.0264 µM) | 0.0625 mg/L (≈ 0.0264 µM) | <1% |  |  |  | 
CCCC[C@H](NC(C)=O)C(=O)N[C@H](C(=O)N[C@@H](Cc1ccc(O)cc1)C(=O)N[C@H]1CSSC[C@@H](C(=O)N[C@H](C(=O)N[C@H](C(=O)N[C@H](C(N)=O)[C@@H](C)O)[C@@H](C)O)[C@@H](C)CC)NC(=O)[C@H](Cc2c[nH]c3ccccc23)NC(=O)[C@H](CO)NC(=O)[C@@H](CCN)NC(=O)[C@H](CCC(=O)N[C@@H](CCN)C(=O)N[C@H](C(=O)N[C@@H](CN)C(=O)N[C@H]2CCNC(=O)[C@H]([C@@H](C)O)NC(=O)[C@H](CCN)NC(=O)[C@H](CCN)NC(=O)[C@H]([C@H](O)C(C)C)NC(=O)[C@@H](CC(C)C)NC(=O)[C@H](CCN)NC2=O)[C@@H](C)O)NC1=O)[C@@H](C)O [Ex. 223] (I: Ac-[Nle]TYCE[dDab]SWCITT-NH2 / II: [Dab]T[Dap][Dab][Dab][dL][Leu(3R-OH)][Dab][Dab]T; disulfide I:4-I:9; amide I:5-II:N; lactam II:4-II:C) | 0.03125 mg/L (≈ 0.0126 µM) | 0.03125 mg/L (≈ 0.0126 µM) | 0.0625 mg/L (≈ 0.0253 µM) | 0.125 mg/L (≈ 0.0506 µM) | 0.03125 mg/L (≈ 0.0126 µM) | 0.25 mg/L (≈ 0.101 µM) | 0.0625 mg/L (≈ 0.0253 µM) | 0.125 mg/L (≈ 0.0506 µM) | <1% |  |  |  | 
CC[C@H](C)[C@@H]1NC(=O)[C@H](CO)NC(=O)[C@H](Cc2c[nH]c3ccccc23)NC(=O)[C@H](CCN)NC(=O)[C@@H](CCN)NC(=O)[C@H](CCC(=O)N[C@@H](CCN)C(=O)N[C@H](C(=O)N[C@@H](CN)C(=O)N[C@H]2CCNC(=O)[C@H]([C@@H](C)O)NC(=O)[C@H](CCN)NC(=O)[C@H](CCN)NC(=O)[C@H](CC(C)C)NC(=O)[C@@H](CC(C)C)NC(=O)[C@H](CCN)NC2=O)[C@@H](C)O)NC(=O)[C@H](CO)NC(=O)[C@H](Cc2ccc(O)cc2)NC(=O)[C@@H](NC(=O)[C@@H](NC(C)=O)C(C)C)CSSC[C@@H](C(=O)N[C@@H](CO)C(N)=O)NC1=O [Ex. 253] (I: Ac-VCYSE[dDab][Dab]WSICS-NH2 / II: [Dab]T[Dap][Dab][Dab][dL]L[Dab][Dab]T; disulfide I:2-I:11; amide I:5-II:N; lactam II:4-II:C) | 0.03125 mg/L (≈ 0.013 µM) | 0.03125 mg/L (≈ 0.013 µM) | 0.125 mg/L (≈ 0.0518 µM) | 0.0625 mg/L (≈ 0.0259 µM) | 0.03125 mg/L (≈ 0.013 µM) | 0.0625 mg/L (≈ 0.0259 µM) | 0.0625 mg/L (≈ 0.0259 µM) | 0.0625 mg/L (≈ 0.0259 µM) | 2% |  |  |  | 
CCCC[C@@H]1NC(=O)[C@H](CO)NC(=O)[C@H](Cc2c[nH]c3ccccc23)NC(=O)[C@H](CO)NC(=O)[C@@H](CCN)NC(=O)[C@H](CCC(=O)N[C@@H](CCN)C(=O)N[C@H](C(=O)N[C@@H](CN)C(=O)N[C@H]2CCNC(=O)[C@H]([C@@H](C)O)NC(=O)[C@H](CCN)NC(=O)[C@H](CCN)NC(=O)[C@H](CC(C)C)NC(=O)[C@@H](CC(C)C)NC(=O)[C@H](CCN)NC2=O)[C@@H](C)O)NC(=O)[C@H](CCN)NC(=O)[C@H](Cc2ccc(O)cc2)NC(=O)[C@@H](NC(=O)[C@@H](NC(C)=O)C(C)C)CCNC(=O)CC[C@@H](C(=O)N[C@@H](CO)C(N)=O)NC1=O [Ex. 326] (I: Ac-V[Dab]Y[Dab]E[dDab]SWS[Nle]ES-NH2 / II: [Dab]T[Dap][Dab][Dab][dL]L[Dab][Dab]T; lactam I:2-I:11, II:4-II:C; amide I:5-II:N) | 0.125 mg/L (≈ 0.0517 µM) |  | 0.0625 mg/L (≈ 0.0258 µM) | 0.125 mg/L (≈ 0.0517 µM) |  | 0.5 mg/L (≈ 0.207 µM) |  |  | <1% | 0.0625 mg/L | 0.0625 mg/L | 0.0625 mg/L | 0.0625 mg/L
CN[C@H](C(=O)N[C@@H](CN)C(=O)N[C@@H](Cc1ccc(O)cc1)C(=O)N[C@@H]1C(=O)N[C@@H](CCC(=O)N[C@@H](CCN)C(=O)N[C@H](C(=O)N[C@@H](CCN)C(=O)N[C@H]2CCNC(=O)[C@H]([C@@H](C)O)NC(=O)[C@H](CCN)NC(=O)[C@H](CCN)NC(=O)[C@H](CC(C)C)NC(=O)[C@@H](CC(C)C)NC(=O)[C@H](CCN)NC2=O)[C@@H](C)O)C(=O)N[C@H](CCN)C(=O)N[C@@H]([C@@H](C)O)C(=O)N[C@@H](Cc2c[nH]c3ccccc23)C(=O)N[C@H](C(=O)N[C@H](C(=O)N[C@@H](C)C(=O)N[C@@H](CO)C(N)=O)C(C)(C)C)CSSC1(C)C)C(C)C [Ex. 181] (I: H-[NMeV][Dap]Y[Pen]E[dDab]TWC[Tle]AS-NH2 / II: [Dab]T[Dab][Dab][Dab][dL]L[Dab][Dab]T; disulfide I:4-I:9; amide I:5-II:N; lactam II:4-II:C) | 2 mg/L (≈ 0.83 µM) | 0.25 mg/L (≈ 0.104 µM) | 1 mg/L (≈ 0.415 µM) | 2 mg/L (≈ 0.83 µM) | 0.25 mg/L (≈ 0.104 µM) | 8 mg/L (≈ 3.32 µM) | 0.5 mg/L (≈ 0.207 µM) | 0.5 mg/L (≈ 0.207 µM) | <1% |  |  |  | 
CC(=O)N[C@H](C(=O)N[C@H]1CSSC[C@@H](C(=O)N[C@H](C(N)=O)[C@@H](C)O)NC(=O)[C@H](C(C)(C)C)NC(=O)[C@H](CCC(=O)O)NC(=O)[C@H](Cc2c[nH]c3ccccc23)NC(=O)[C@H](CCN)NC(=O)[C@@H](CCN)NC(=O)[C@H](CCC(=O)N[C@@H](CCN)C(=O)N[C@H](C(=O)N[C@@H](CN)C(=O)N[C@H]2CCNC(=O)[C@H]([C@@H](C)O)NC(=O)[C@H](CCN)NC(=O)[C@H](CCN)NC(=O)[C@H]([C@H](O)C(C)C)NC(=O)[C@@H](CC(C)C)NC(=O)[C@H](CCN)NC2=O)[C@@H](C)O)NC(=O)[C@H](CO)NC(=O)[C@H](Cc2ccc(O)cc2)NC1=O)C(C)C [Ex. 134] (I: Ac-VCYSE[dDab][Dab]WE[Tle]CT-NH2 / II: [Dab]T[Dap][Dab][Dab][dL][Leu(3R-OH)][Dab][Dab]T; disulfide I:2-I:11; amide I:5-II:N; lactam II:4-II:C) | 0.0625 mg/L (≈ 0.0252 µM) | 0.03125 mg/L (≈ 0.0126 µM) | 0.125 mg/L (≈ 0.0503 µM) | 0.125 mg/L (≈ 0.0503 µM) | 0.03125 mg/L (≈ 0.0126 µM) | 0.125 mg/L (≈ 0.0503 µM) | 0.03125 mg/L (≈ 0.0126 µM) | 0.125 mg/L (≈ 0.0503 µM) | 3% |  |  |  | 
CC(=O)N[C@H](C(=O)N[C@H]1CSSC[C@@H](C(=O)N[C@@H](CO)C(N)=O)NC(=O)[C@H](C(C)C)NC(=O)[C@H](CCC(=O)O)NC(=O)[C@H](Cc2c[nH]c3ccccc23)NC(=O)[C@H](CCN)NC(=O)[C@@H](CCN)NC(=O)[C@H](CCC(=O)N[C@@H](CCN)C(=O)N[C@H](C(=O)N[C@@H](CN)C(=O)N[C@H]2CCNC(=O)[C@H]([C@@H](C)O)NC(=O)[C@H](CCN)NC(=O)[C@H](CCN)NC(=O)[C@H](CC(C)C)NC(=O)[C@@H](CC(C)C)NC(=O)[C@H](CCN)NC2=O)[C@@H](C)O)NC(=O)[C@H](CCN)NC(=O)[C@H](Cc2ccc(O)cc2)NC1=O)C(C)C [Ex. 153] (I: Ac-VCY[Dab]E[dDab][Dab]WEVCS-NH2 / II: [Dab]T[Dap][Dab][Dab][dL]L[Dab][Dab]T; disulfide I:2-I:11; amide I:5-II:N; lactam II:4-II:C) | 0.0625 mg/L (≈ 0.0255 µM) | 0.03125 mg/L (≈ 0.0127 µM) | 0.125 mg/L (≈ 0.0509 µM) | 0.125 mg/L (≈ 0.0509 µM) | 0.0625 mg/L (≈ 0.0255 µM) | 0.25 mg/L (≈ 0.102 µM) | 0.0625 mg/L (≈ 0.0255 µM) | 0.125 mg/L (≈ 0.0509 µM) | <1% |  |  |  | 
